Results published in patent publication US10519148B2, “Acrylic acid derivative, preparation method and use in medicine thereof” (Zhejiang Hisun Pharmaceutical Co., Ltd., priority 2015, dated 2019).

Legend:
[1] = molecular target: T1, recombinant human estrogen receptor ERα ligand binding domain (Homo sapiens, UniProt P03372); assay: LanthaScreen TR-FRET competition binding assay with estrogen receptor ERα ligand binding domain; settings: TR-FRET competition with Fluormone ES2, ERα-LBD (GST); read-out: IC50 (nM) ER Reporter
T1 construct: purchased Invitrogen PV4543
T1 sequence (P03372 311-547 limits assumed): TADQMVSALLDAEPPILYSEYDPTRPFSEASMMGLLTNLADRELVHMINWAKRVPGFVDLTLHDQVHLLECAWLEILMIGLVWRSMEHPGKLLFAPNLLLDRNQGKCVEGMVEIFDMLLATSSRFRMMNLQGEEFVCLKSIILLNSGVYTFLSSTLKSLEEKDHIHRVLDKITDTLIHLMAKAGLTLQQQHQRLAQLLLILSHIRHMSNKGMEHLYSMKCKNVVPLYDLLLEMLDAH
Excerpt: The present invention utilizes the Lantha Screen™ Time-resolved Fluorescence Resonance Energy Transfer (TR-FRET) to assess the ability of the compounds to bind to the isolated ligand domain of estrogen receptor Era in competition assay. The fluorophore (Fluormone ES2, product code P2645) and the recombinant human estrogen receptor ERα ligand binding domain (product code PV4543) using in the TR-FRET were purchased from Invitrogen. The design principle of this assay is as follows: the estrogen receptor ERα-LBD (GST) and the fluorophore-containing ligand form a receptor/fluorophore complex, followed by the addition of terbium (Tb)-labeled anti-GST antibody (product code PV3551), the indirect labeling of the receptor is achieved by the linkage with the GST on the receptor, and the ability of competitive coordination between the test compound and the fluorescent ligand with the receptor is evaluated by detecting the attenuation of the TR-FRET effect between the chromophore (Tb-anti-GST antibody) on the fluorescent label ERα and the fluorescent ligand (Fluormone ES2). We used the following sample preparation and test methods for the test of the synthesized compounds. The instrument we used is Beckman Coulter BioPAPTR FRD microfluidic workstation.
(1) Acoustic dispense 120 nL of the test compound into a black low volume 384 well assay plates;
(2) Preparation of 1×ERα-LBD/Tb-anti-GST antibody complex in ES2 buffer and incubation therein for 20 minutes;
(3) The 1×ES2 was further added to the above ERα-LBD/Tb-anti-GST antibody complex solution before the test;
(4) 12 μL of the ERα-LBD/Tb-anti-GST antibody complex solution prepared in step 3 was added to the wells of the assay plate;
(5) The plates were shielded from light and incubated at room temperature for one hour; (6) At 337 nm excitation light, the emission light at 490 nm and 520 nm was detected by BMG Phera STAR.
The test compounds of a series of concentrations (10 mM, 0.1 mM, 1 μM and 10 nM) prepared on a microplate were transferred to the analytical plate using Labcyte Echo 550. 120 nL of DMSO solution for each test compound was added to each well of the assay plate and tested at 12 different concentrations (100, 29.17, 10.42, 2.083, 1, 0.292, 0.104, 0.02083, 0.01, 0.0029, 0.00104, 0.001 μM). The TR-FRET primitive fluorescence data was used to obtain the fitting curve software such as Origin or Genedata. Half maximal inhibitory concentration IC50 of each compound was used to characterize the competitive binding ability of the test compound with the estrogen receptor ERα. IC50 represents the concentration of the test compound that was calculated when the coordination of the tracer fluorophore (ES2) with the estrogen receptor was reduced by 50%, and the IC50 was determined as shown in Table 3.

ERα = molecular target: T2, ERα (Homo sapiens, UniProt P03372); assay: ERα down-regulation immunofluorescence assay in MCF-7 cells; assay type: cell-based; settings: immunofluorescence of ERα level, read-out: IC50 (nM) ERα down-degradation
T2 construct: host or cells: MCF-7
T2 sequence (P03372 1-595): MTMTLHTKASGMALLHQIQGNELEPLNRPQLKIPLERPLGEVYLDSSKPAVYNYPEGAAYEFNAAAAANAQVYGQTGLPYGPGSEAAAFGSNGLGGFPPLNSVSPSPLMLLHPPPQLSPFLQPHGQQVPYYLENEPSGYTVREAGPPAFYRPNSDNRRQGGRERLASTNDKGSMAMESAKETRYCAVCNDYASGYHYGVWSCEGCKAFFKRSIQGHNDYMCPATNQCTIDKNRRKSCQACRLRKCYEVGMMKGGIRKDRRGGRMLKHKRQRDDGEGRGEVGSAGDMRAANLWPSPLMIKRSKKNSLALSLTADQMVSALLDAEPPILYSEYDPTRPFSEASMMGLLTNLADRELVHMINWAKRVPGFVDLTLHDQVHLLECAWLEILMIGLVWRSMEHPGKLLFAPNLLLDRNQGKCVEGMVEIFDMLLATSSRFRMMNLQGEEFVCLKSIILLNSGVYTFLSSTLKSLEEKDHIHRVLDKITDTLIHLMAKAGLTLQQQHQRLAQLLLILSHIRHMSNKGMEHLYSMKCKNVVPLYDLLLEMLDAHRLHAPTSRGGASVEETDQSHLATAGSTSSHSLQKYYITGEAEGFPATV
Method: The down-regulation of the preferred compounds of the present invention on the protein level of ERα is evaluated by immunofluorescence assay using human breast cancer cell line MCF-7. MCF-7 cells used in the experiment were revived directly from frozen cells (about 5×10^6). The MCF-7 frozen cell line (Sigma D5921) purchased from Sigma was stored in DMEM medium containing 2 mM […]. 5% (v/v) Charcoal/Dextran-treated bovine serum […] were added to the revived MCF-7 cells and the cell concentration was determined using Coulter Counter.
The cells used for the test were diluted to 3.75×10^4 cells/mL with culture medium and 40 μL/well of the above cell suspension was transferred to 384-well black transparent bottom plates and incubated overnight at 37° C., 5% CO2. 10 mM compound stock solutions were diluted to a series of test concentrations (10 mM, 0.1 mM, 1 μM, 0.01 μM etc.) and dispensed into cell plates. 20 μL of 11.1% (v/v) aqueous formaldehyde solution (phosphate buffered saline) was added to each of the different concentrations of the test compounds and MCF-7 cell culture solution (40 μL), and the final concentration of formaldehyde in the solution was 3.7% (v/v). Cells were fixed at room temperature for 20 minutes, washed twice with 250 μL of PBS/Proclin, and then 40 μL of PBS/Proclin was added and refrigerated at 4° C. The immunostaining of the protein was performed using the automated AutoElisa kit. The PBS/Proclin solution was aspirated from each plate well and then 40 μL of PBS containing 0.5% Tween 20 (v/v) was added for cell permeation. After one hour, the plate was washed with 250 μL of PBS/0.05% Tween 20/Proclin for three times, and 20 μL of ERα rabbit monoclonal antibody (Thermofisher) in PBS/Tween™ 20/3% (w/v) BSA solution (1:1000) was added. The plates were incubated overnight at 4° C., washed three times with 250 μL of PBS/Tween™ 20/Proclin, and then 20 μL of goat anti-rabbit IgG AlexaFluor 594 or goat anti-rabbit IgG AlexaFluor 488 antibody (containing Hoechst stain (1:5000) in PBS/Tween™ 20/3% (w/v) BSA solution was added, and the system was incubated at room temperature for one hour. After the plates were washed three times with 250 μL of PBS/0.05% (v/v) Tween™ 20/Proclin, 20 μL of PBS was added and the paltes were kept in dark place at 4° C. The level of estrogen receptor ERα in MCF-7 cells was calculated through Cellomics Arrayscan detection of fluorescence emission intensity at two emission wave bands at 594 nm (24-hour time point) and 488 nm (5-hour time point). The average fluorescence emission intensity of each cell is positively correlated with the ERα receptor level of the cell. The primitive fluorescence data was used to obtain the fitting curve by software such as Origin or Genedata. Half maximal inhibitory concentration IC50 was used to characterize the down-regulation of estrogen receptor ERα by the test compounds, which is the concentration of the test compound when the fluorescence emission intensity is reduced to 50% of the average maximum fluorescence intensity.

Structure (SMILES) | IC50 [1] | DC50 (ERα)
C[C@@H]1Cc2c([nH]c3ccccc23)[C@@H](c2c(F)cc(/C=C/C(=O)O)cc2F)N1CC1CC1 [Example 2, (E)-3-(4-((1R,3R)-2-(cyclopropylmethyl)-3-methyl-2,3,4,9-tetrahydro-1H-pyrido[3,4-b]indol-1-yl)-3,5-difluorophenyl)acrylic acid] | 0.1 to 10 nM | 0.1 to 10 nM
C[C@@H]1Cc2c([nH]c3ccccc23)[C@@H](c2c(F)cc(/C=C/C(=O)O)cc2F)N1CC1CCCC1 [Example 3, (E)-3-(4-((1R,3R)-2-(cyclopentylmethyl)-3-methyl-2,3,4,9-tetrahydro-1H-pyrido[3,4-b]indol-1-yl)-3,5-difluorophenyl)acrylic acid] | 10 to 250 nM | 10 to 250 nM
C[C@@H]1Cc2c([nH]c3ccccc23)[C@@H](c2c(F)cc(/C=C/C(=O)O)cc2F)N1CC1(F)CCCCC1 [Example 6, (E)-3-(3,5-difluoro-4-((1R,3R)-2-((1-fluorocyclohexyl)methyl)-3-methyl-2,3,4,9-tetrahydro-1H-pyrido[3,4-b]indol-1-yl)phenyl)acrylic acid] | 10 to 250 nM | 10 to 250 nM
C[C@@H]1Cc2c([nH]c3ccccc23)[C@@H](c2c(F)cc(/C=C/C(=O)O)cc2F)N1CC1COC1 [Example 11, (E)-3-(3,5-difluoro-4-((1R,3R)-3-methyl-2-(oxetane-3-ylmethyl)-2,3,4,9-tetrahydro-1H-pyrido[3,4-b]indol-1-yl)phenyl)acrylic acid] | 10 to 250 nM | 10 to 250 nM
C[C@H]1Cc2c([nH]c3cccc(F)c23)[C@H](c2c(F)cc(/C=C/C(=O)O)cc2F)N1CC1(F)CC1 [Example 13, (E)-3-(3,5-difluoro-4-((1S,3S)-5-fluoro-2-((1-fluorocyclopropyl)methyl)-3-methyl-2,3,4,9-tetrahydro-1H-pyrido[3,4-b]indol-1-yl)phenyl)acrylic acid] | 250 to 1000 nM | 250 to 1000 nM
